From patent publication US20040181130A1, “Methods for diagnosing skin lesions” (3M Innovative Properties Company, priority 2003, published 2004)

Test system: AK lesions
Assay: Increase in AK lesion count during 16-week topical treatment of volunteers with AK lesions
Assay type: in vivo, human
Excerpt: Volunteers having from four to eight clinically diagnosed AK lesions located within a 25 cm^2 treatment area were enrolled in a study. The study consisted of a prestudy period, a 16-week treatment period, and an 8-week post treatment period. Enrolled participants were randomized to receive either 5% imiquimod cream (ALDARA, 3M Pharmaceuticals, St. Paul, Minn.) or placebo cream containing no biologically active ingredient.
Subjects were instructed to topically administer cream from a single-use sachet. Sachets that contained imiquimod contained 250 mg of cream. One group of subjects applied cream two days per week for sixteen weeks, with dosing days occurring a minimum of three days apart. A second group of subjects applied cream three days per week for sixteen weeks, with dosing days occurring at least two days apart.
At a pretreatment visit, a baseline AK lesion count was established for each subject. Updated AK lesion counts were calculated at visits after four weeks, eight weeks, and sixteen weeks of treatment. For each individual, “new” AK lesions were calculated as the difference between the updated AK count and the baseline AK count. Thus, subclinical AK lesions may become apparent after treatment with ALDARA cream.

[1] = 5% cream topical 2x/week, Any visit, N=215
[2] = 5% cream topical 2x/week, Week 4, N=215
[3] = 5% cream topical 2x/week, Week 8, N=215
[4] = 5% cream topical 2x/week, Week 16, N=215
[5] = 5% cream topical 3x/week, Any visit, N=242
[6] = 5% cream topical 3x/week, Week 4, N=242
[7] = 5% cream topical 3x/week, Week 8, N=242
[8] = 5% cream topical 3x/week, Week 16, N=242

CC(C)Cn1cnc2c(N)nc3ccccc3c21 [Imiquimod, imiquimod]
% of Subjects with an Increase in AK Lesion Count [1]: 47.9% | Number of Subjects with an Increase in AK Lesion Count [1]: 103 | % of Subjects with an Increase in AK Lesion Count [2]: 36.7% | Number of Subjects with an Increase in AK Lesion Count [2]: 79 | % of Subjects with an Increase in AK Lesion Count [3]: 28.4% | Number of Subjects with an Increase in AK Lesion Count [3]: 61 | % of Subjects with an Increase in AK Lesion Count [4]: 9.3% | Number of Subjects with an Increase in AK Lesion Count [4]: 20 | % of Subjects with an Increase in AK Lesion Count [5]: 42.6% | Number of Subjects with an Increase in AK Lesion Count [5]: 103 | % of Subjects with an Increase in AK Lesion Count [6]: 33.1% | Number of Subjects with an Increase in AK Lesion Count [6]: 80 | % of Subjects with an Increase in AK Lesion Count [7]: 16.5% | Number of Subjects with an Increase in AK Lesion Count [7]: 40 | % of Subjects with an Increase in AK Lesion Count [8]: 6.2% | Number of Subjects with an Increase in AK Lesion Count [8]: 15
